Test results from PMC11207040, “Synthesis and Biological Studies of New Temporin A Analogs Containing Unnatural Amino Acids in Position 7” (Pharmaceutics, 2024).
In brackets after ≈: the same amount, converted by molar mass. Like-named read-outs stand apart in the source and are kept apart here. Non-standard residues stand in square brackets, D forms with d. Residues, ends and D or L forms follow the SMILES beside them. Dab = NCC[C@H](N)C(=O)O

What was measured:
[1] = system: MCF-12F cells; assay: MTT antiproliferative assay, MCF-12F; assay type: cell-based, human; conditions: 72 h, non-tumorigenic cell line, read-out: Mean IC50 ± SD, MCF-12F
Description: The cell lines BALB 3T3 (mouse embryonic fibroblasts) and MCF-12F (human breast epithelial cells) were used as models for healthy tissue. The MCF-7 and MDA-MB-231 cell lines were used as in vitro models for luminal A- and basal B-type breast cancer, respectively. Cell lines were obtained from the American Type Cultures Collection (ATCC, Manassas, VA, USA). Cells were cultured in Dulbecco modified Eagle’s medium (DMEM) supplemented with 10% fetal bovine serum (FBS), 100 U/mL penicillin, and 0.1 mg/mL streptomycin (Sigma-Aldrich, Schnelldorf, Germany) in an incubator at 37 °C, 5% CO2 and 95% humidity. Plastic flasks 75 cm^2 (Biologix, Lenexa, KS, USA) were used to grow the cells.
The antiproliferative activity testing was performed on cell cultures using the MTT-dye reduction assay. This assay is based on the metabolism of MTT to insoluble formazan by mitochondrial reductases. The formazan concentration can be determined spectrophotometrically. The measured absorption is an indicator of cell viability. Cell lines (MCF-12F, MCF-7 and MDA-MB-231) were used in the experiments. Cells were plated at a density of 1 × 10^3 cells/100 µL in each well of 96-well microplates and allowed to adhere for 24 h before treatment with test compounds. A concentration range from 4 to 1000 μM was applied for 72 h. The formazan absorption was registered using a microplate reader at λ = 540 nm. Antiproliferative activities were expressed as IC50 values (concentrations required for 50% inhibition of cell growth).

[2] = system: Candida albicans NBIMCC 74; assay type: cell-based; conditions: 20 µL per disc, 24 h
Description: (§1) The parent peptide Temporin A and the novel analogs were subjected to tests against model strains Escherichia coli NBIMCC 8785, Bacillus subtilis NBIMCC 3562, Arthrobacter oxydans NBIMCC 9333, Pseudomonas aeruginosa NBIMCC 3700, and Candida albicans NBIMCC 74, for the assessment of their antimicrobial activity. The strains were acquired from the National Bank for Industrial Microorganisms and Cell Cultures (NBIMCC, Bulgaria). The strain E. coli 8785 was cultured in Luria-Bertani broth (LB, HiMedia, Mumbai, India); B. subtilis 3562—in nutrient broth (NB, HiMedia, Mumbai, India); A. oxydans 9333; P. aeruginosa 3700—in meat peptone agar (MPA) medium; and C. albicans 74—in yeast mold (YM) medium. An incubator shaker ES-20/60 (Biosan, Latvia) was used for the cultivation and was set to 30 °C for B. subtilis 3562, A. oxydans 9333, and C. albicans 74; and 37 °C for E. coli 8785 and P. aeruginosa 3700, with a 24 h shaking period at 120 rpm. The microbial cultures were then adjusted to a turbidity of 0.5 McFarland using a Grant-bio DEN-1B densitometer (Grant Instruments, Royston, UK) for further use.
(§2) The disk-diffusion method was used as an additional method, with the aim of determining the percent inhibition of the tested samples against the model strains. Sterile plates with LB/NB/MPA/YM agar medium were inoculated on the surface with 100 μL from each microbial culture and incubated at 30 or 37 °C for 30 min, for the suspension to penetrate the agar. After that, sterile paper discs (HiMedia, Mumbai, India) with a diameter of 6 mm were soaked with 20 µL of the peptide solutions with concentrations of 1.4 mg/mL and 10 mg/mL and placed on the agar surface. Sterile paper discs with 10% EtOH/H2O were used as a negative control, and the corresponding strain antibiotic disks (HiMedia, Mumbai, India)—as a positive control. The incubation of the plate was performed at 30/37 °C for 24 h. The antimicrobial activity was analyzed by measuring the diameter of the inhibition zones in mm. The experiments were conducted in triplicates, and the average values for the percent of inhibition as a correlation between the inhibition zone of the peptides over the inhibition zone of the antibiotic multiplied by 100 were calculated.

[3] = system: Arthrobacter oxydans NBIMCC 9333; assay type: cell-based; conditions: for Inhibition effect, A. oxydans 9333: zone of peptide over zone of antibiotic x 100; for Inhibition zone, A. oxydans 9333: 20 µL per disc, 24 h
Description: as §1, §2

[4] = system: Pseudomonas aeruginosa NBIMCC 3700; assay type: cell-based; conditions: for Inhibition effect, P. aeruginosa 3700: zone of peptide over zone of antibiotic x 100; for Inhibition zone, P. aeruginosa 3700: 20 µL per disc, 24 h
Description: as §1, §2

[5] = system: Bacillus subtilis NBIMCC 3562; assay type: cell-based; conditions: for Inhibition effect, B. subtilis 3562: zone of peptide over zone of antibiotic x 100; for Inhibition zone, B. subtilis 3562: 20 µL per disc, 24 h
Description: as §1, §2

[6] = system: Escherichia coli NBIMCC 8785; assay type: cell-based; conditions: 20 µL per disc, 24 h
Description: as §1, §2

[7] = system: Candida albicans NBIMCC 74; assay type: cell-based; conditions: broth dilution, 0 to 320 µg/mL, 24 h; NI = no inhibition monitored

Row | Compound | IC50 [1] [µM] | Inhibition zone, C. albicans 74 ([2]; peptide 1.4 mg/mL) [mm] | Inhibition zone, C. albicans 74 ([2]; peptide 10 mg/mL) [mm] | Inhibition effect, A. oxydans 9333 ([3]; 1.4 mg/mL) [%] | Inhibition effect, A. oxydans 9333 ([3]; 10 mg/mL) [%] | Inhibition zone, A. oxydans 9333 ([3]; peptide 1.4 mg/mL) [mm] | Inhibition zone, A. oxydans 9333 ([3]; peptide 10 mg/mL) [mm] | Inhibition effect, P. aeruginosa 3700 ([4]; 1.4 mg/mL) [%] | Inhibition effect, P. aeruginosa 3700 ([4]; 10 mg/mL) [%] | Inhibition zone, P. aeruginosa 3700 ([4]; peptide 1.4 mg/mL) [mm] | Inhibition zone, P. aeruginosa 3700 ([4]; peptide 10 mg/mL) [mm] | Inhibition effect, B. subtilis 3562 ([5]; 1.4 mg/mL) [%] | Inhibition effect, B. subtilis 3562 ([5]; 10 mg/mL) [%] | Inhibition zone, B. subtilis 3562 ([5]; peptide 1.4 mg/mL) [mm] | Inhibition zone, B. subtilis 3562 ([5]; peptide 10 mg/mL) [mm] | Inhibition zone, E. coli 8785 ([6]; peptide 1.4 mg/mL) [mm] | Inhibition zone, E. coli 8785 ([6]; peptide 10 mg/mL) [mm] | MIC, C. albicans 74 [7] [µg/mL]
1 | CC[C@H](C)[C@H](NC(=O)CNC(=O)[C@H](CO)NC(=O)[C@H](CC(C)C)NC(=O)[C@@H](NC(=O)[C@H](CCN)NC(=O)CNC(=O)[C@@H](NC(=O)[C@H](CC(C)C)NC(=O)[C@@H]1CCCN1C(=O)[C@H](CC(C)C)NC(=O)[C@@H](N)Cc1ccccc1)[C@@H](C)CC)C(C)C)C(=O)N[C@@H](CC(C)C)C(N)=O [DTDab, FLPLIG-Dab-VLSGIL-NH2] (H-FLPLIG[Dab]VLSGIL-NH2; N-terminus assumed) | 280 ± 13.6 | 0.0 | 0.0 | 43.2 | 76.3 | 8.2 ± 0.3 | 14.5 ± 0.5 | 48.1 | 89.4 | 7.7 ± 0.6 | 14.3 ± 0.6 | 0.0 | 45.2 | 0.0 | 11.3 ± 0.6 | 0.0 | 0.0 | –
2 | CC[C@H](C)[C@H](NC(=O)CNC(=O)[C@H](CO)NC(=O)[C@H](CC(C)C)NC(=O)[C@@H](NC(=O)[C@H](CCCCN)NC(=O)CNC(=O)[C@@H](NC(=O)[C@H](CC(C)C)NC(=O)[C@@H]1CCCN1C(=O)[C@H](CC(C)C)NC(=O)[C@@H](N)Cc1ccccc1)[C@@H](C)CC)C(C)C)C(=O)N[C@@H](CC(C)C)C(N)=O [DTF, FLPLIG-K-VLSGIL-NH2, reference compound] (H-FLPLIGKVLSGIL-NH2) | 100 ± 3.3 | 0.0 | 0.0 | 33.5 | 57.5 | 6.7 ± 0.3 | 11.5 ± 0.5 | 43.8 | 64.4 | 7.0 ± 0.5 | 10.3 ± 0.8 | 34.0 | 50.8 | 8.5 ± 0.5 | 12.7 ± 0.6 | 0.0 | 0.0 | 320 (≈ 234 µM)
